How the values were obtained:
[1] = species: Homo sapiens; assay: Toxicity in HBeAg-positive chronic hepatitis B patient assessed as increase in ALT level at 0.5 mg/day; format: organism-based; conditions: in vivo
[2] = species: Homo sapiens; assay: Toxicity in HBeAg-positive chronic hepatitis B patient assessed as vomiting at 0.5 mg/day; format: organism-based; conditions: in vivo
[3] = species: Homo sapiens; assay: Toxicity in HBeAg-positive chronic hepatitis B patient assessed as myalgia at 0.5 mg/day; format: organism-based; conditions: in vivo
[4] = species: Homo sapiens; assay: Toxicity in HBeAg-positive chronic hepatitis B patient assessed as insomnia at 0.5 mg/day; format: organism-based; conditions: in vivo
[5] = system: Hepatitis B virus; assay: Antiviral activity against Hepatitis B virus in HBeAg-positive chronic hepatitis B patient assessed as mean viral clearance rate at 0.5 mg/day; format: functional
[6] = species: Homo sapiens; assay: Toxicity in HBeAg-positive chronic hepatitis B patient assessed as peripheral neuropathy at 0.5 mg/day; format: organism-based; conditions: in vivo
[7] = species: Homo sapiens; assay: Hepatotoxicity in HBeAg-positive chronic hepatitis B patient assessed as reduction in alanine aminotransferase level at 0.5 mg/day after 12 weeks (reference value: 170.2 IU/liter); format: toxicity, organism-based; conditions: in vivo, 2016 h
[8] = species: Homo sapiens; assay: Toxicity in HBeAg-positive chronic hepatitis B patient assessed as increase in AST level at 0.5 mg/day; format: organism-based; conditions: in vivo
[9] = species: Homo sapiens; assay: Toxicity in HBeAg-positive chronic hepatitis B patient assessed as chest discomfort at 0.5 mg/day; format: organism-based; conditions: in vivo
[10] = system: Hepatitis B virus; assay: Antiviral activity against Hepatitis B virus in HBeAg-positive chronic hepatitis B patient assessed as mean rate of infected cell loss at 0.5 mg/day; format: functional
[11] = species: Homo sapiens; assay: Toxicity in HBeAg-positive chronic hepatitis B patient assessed as abdominal discomfort at 0.5 mg/day; format: organism-based, Abdomen; conditions: in vivo
[12] = species: Homo sapiens; assay: Toxicity in HBeAg-positive chronic hepatitis B patient assessed as increase in blood CK level at 0.5 mg/day; format: organism-based; conditions: in vivo
[13] = species: Homo sapiens; assay: Toxicity in HBeAg-positive chronic hepatitis B patient assessed as thrombocytopenia at 0.5 mg/day; format: organism-based; conditions: in vivo
[14] = species: Homo sapiens; assay: Toxicity in HBeAg-positive chronic hepatitis B patient assessed as neutropenia at 0.5 mg/day; format: organism-based; conditions: in vivo
[15] = species: Homo sapiens; assay: Toxicity in HBeAg-positive chronic hepatitis B patient assessed as myringitis at 0.5 mg/day; format: organism-based; conditions: in vivo
[16] = species: Homo sapiens; assay: Toxicity in HBeAg-positive chronic hepatitis B patient assessed as conjunctival hypermia at 0.5 mg/day; format: organism-based, Conjunctiva; conditions: in vivo
[17] = species: Homo sapiens; assay: Toxicity in HBeAg-positive chronic hepatitis B patient assessed as hordeolum at 0.5 mg/day; format: organism-based; conditions: in vivo
[18] = system: Homo sapiens; assay: Toxicity in HBeAg-positive chronic hepatitis B patient assessed as facial edema at 0.5 mg/day; format: organism-based; conditions: in vivo
[19] = species: Homo sapiens; assay: Toxicity in HBeAg-positive chronic hepatitis B patient assessed as vaginal hemorrhage at 0.5 mg/day; format: organism-based; conditions: in vivo
[20] = species: Homo sapiens; assay: Toxicity in HBeAg-positive chronic hepatitis B patient assessed as dyspnea at 0.5 mg/day; format: organism-based; conditions: in vivo
[21] = species: Homo sapiens; assay: Toxicity in HBeAg-positive chronic hepatitis B patient assessed as upper abdominal pain at 0.5 mg/day; format: organism-based, Abdomen; conditions: in vivo
[22] = species: Homo sapiens; assay: Toxicity in HBeAg-positive chronic hepatitis B patient assessed as nausea at 0.5 mg/day; format: organism-based; conditions: in vivo
[23] = system: Hepatitis B virus; assay: Antiviral activity against Hepatitis B virus in HBeAg-positive chronic hepatitis B patient assessed as HBV DNA level in serum at 600 mg/day after 12 weeks (reference value: 10.29 log10copies/ml); format: functional
[24] = species: Homo sapiens; assay: Toxicity in HBeAg-positive chronic hepatitis B patient assessed as nasophayngitis at 0.5 mg/day; format: organism-based; conditions: in vivo
[25] = species: Homo sapiens; assay: Toxicity in HBeAg-positive chronic hepatitis B patient assessed as muscular weakness at 0.5 mg/day; format: organism-based; conditions: in vivo
[26] = species: Homo sapiens; assay: Toxicity in HBeAg-positive chronic hepatitis B patient assessed as proteinuria at 0.5 mg/day; format: organism-based; conditions: in vivo
[27] = species: Homo sapiens; assay: Toxicity in HBeAg-positive chronic hepatitis B patient assessed as hyperphosphatemia at 0.5 mg/day; format: organism-based; conditions: in vivo
[28] = species: Homo sapiens; assay: Toxicity in HBeAg-positive chronic hepatitis B patient assessed as gingival bleeding at 0.5 mg/day; format: organism-based; conditions: in vivo
[29] = species: Homo sapiens; assay: Toxicity in HBeAg-positive chronic hepatitis B patient assessed as upper respiratory tract infection at 0.5 mg/day; format: organism-based; conditions: in vivo
[30] = system: Hepatitis B virus; assay: Antiviral activity against Hepatitis B virus in HBeAg-positive chronic hepatitis B patient assessed as mean efficiency factor of blocking virus production at 0.5 mg/day; format: functional
[31] = species: Homo sapiens; assay: Toxicity in HBeAg-positive chronic hepatitis B patient assessed as headache at 0.5 mg/day; format: organism-based; conditions: in vivo
[32] = species: Homo sapiens; assay: Toxicity in HBeAg-positive chronic hepatitis B patient assessed as proteinuria at 600 mg/day; format: organism-based; conditions: in vivo
[33] = species: Homo sapiens; assay: Toxicity in HBeAg-positive chronic hepatitis B patient assessed as chest discomfort at 600 mg/day; format: organism-based; conditions: in vivo
[34] = species: Homo sapiens; assay: Toxicity in HBeAg-positive chronic hepatitis B patient assessed as gingival bleeding at 600 mg/day; format: organism-based; conditions: in vivo
[35] = species: Homo sapiens; assay: Toxicity in HBeAg-positive chronic hepatitis B patient assessed as upper abdominal pain at 600 mg/day; format: organism-based, Abdomen; conditions: in vivo
[36] = system: Homo sapiens; assay: Toxicity in HBeAg-positive chronic hepatitis B patient assessed as facial edema at 600 mg/day; format: organism-based; conditions: in vivo
[37] = species: Homo sapiens; assay: Toxicity in HBeAg-positive chronic hepatitis B patient assessed as vomiting at 600 mg/day; format: organism-based; conditions: in vivo
[38] = species: Homo sapiens; assay: Toxicity in HBeAg-positive chronic hepatitis B patient assessed as muscular weakness at 600 mg/day; format: organism-based; conditions: in vivo
[39] = species: Homo sapiens; assay: Toxicity in HBeAg-positive chronic hepatitis B patient assessed as upper respiratory tract infection at 600 mg/day; format: organism-based; conditions: in vivo
[40] = species: Homo sapiens; assay: Toxicity in HBeAg-positive chronic hepatitis B patient assessed as hordeolum at 600 mg/day; format: organism-based; conditions: in vivo
[41] = species: Homo sapiens; assay: Hepatotoxicity in HBeAg-positive chronic hepatitis B patient assessed as reduction in alanine aminotransferase level at 600 mg/day after 12 weeks (reference value: 163.1 IU/liter); format: toxicity, organism-based; conditions: in vivo, 2016 h
[42] = species: Homo sapiens; assay: Toxicity in HBeAg-positive chronic hepatitis B patient assessed as peripheral neuropathy at 600 mg/day; format: organism-based; conditions: in vivo
[43] = system: Hepatitis B virus; assay: Antiviral activity against Hepatitis B virus in HBeAg-positive chronic hepatitis B patient assessed as mean viral clearance rate at 600 mg/day; format: functional
[44] = species: Homo sapiens; assay: Toxicity in HBeAg-positive chronic hepatitis B patient assessed as nasophayngitis at 600 mg/day; format: organism-based; conditions: in vivo
[45] = system: Hepatitis B virus; assay: Antiviral activity against Hepatitis B virus in HBeAg-positive chronic hepatitis B patient assessed as HBV DNA level in serum at 0.5 mg/day after 12 weeks (reference value: 9.72 log10copies/ml); format: functional
[46] = species: Homo sapiens; assay: Toxicity in HBeAg-positive chronic hepatitis B patient assessed as thrombocytopenia at 600 mg/day; format: organism-based; conditions: in vivo
[47] = species: Homo sapiens; assay: Toxicity in HBeAg-positive chronic hepatitis B patient assessed as abdominal discomfort at 600 mg/day; format: organism-based, Abdomen; conditions: in vivo
[48] = species: Homo sapiens; assay: Toxicity in HBeAg-positive chronic hepatitis B patient assessed as myalgia at 600 mg/day; format: organism-based; conditions: in vivo
[49] = species: Homo sapiens; assay: Toxicity in HBeAg-positive chronic hepatitis B patient assessed as dyspnea at 600 mg/day; format: organism-based; conditions: in vivo
[50] = species: Homo sapiens; assay: Toxicity in HBeAg-positive chronic hepatitis B patient assessed as increase in ALT level at 600 mg/day; format: organism-based; conditions: in vivo
[51] = species: Homo sapiens; assay: Toxicity in HBeAg-positive chronic hepatitis B patient assessed as nausea at 600 mg/day; format: organism-based; conditions: in vivo
[52] = species: Homo sapiens; assay: Toxicity in HBeAg-positive chronic hepatitis B patient assessed as increase in AST level at 600 mg/day; format: organism-based; conditions: in vivo
[53] = species: Homo sapiens; assay: Toxicity in HBeAg-positive chronic hepatitis B patient assessed as neutropenia at 600 mg/day; format: organism-based; conditions: in vivo
[54] = species: Homo sapiens; assay: Toxicity in HBeAg-positive chronic hepatitis B patient assessed as conjunctival hypermia at 600 mg/day; format: organism-based, Conjunctiva; conditions: in vivo
[55] = species: Homo sapiens; assay: Toxicity in HBeAg-positive chronic hepatitis B patient assessed as vaginal hemorrhage at 600 mg/day; format: organism-based; conditions: in vivo
[56] = system: Hepatitis B virus; assay: Antiviral activity against Hepatitis B virus in HBeAg-positive chronic hepatitis B patient assessed as mean efficiency factor of blocking virus production at 600 mg/day; format: functional
[57] = species: Homo sapiens; assay: Toxicity in HBeAg-positive chronic hepatitis B patient assessed as myringitis at 600 mg/day; format: organism-based; conditions: in vivo
[58] = species: Homo sapiens; assay: Toxicity in HBeAg-positive chronic hepatitis B patient assessed as increase in blood CK level at 600 mg/day; format: organism-based; conditions: in vivo
[59] = species: Homo sapiens; assay: Toxicity in HBeAg-positive chronic hepatitis B patient assessed as headache at 600 mg/day; format: organism-based; conditions: in vivo
[60] = species: Homo sapiens; assay: Toxicity in HBeAg-positive chronic hepatitis B patient assessed as insomnia at 600 mg/day; format: organism-based; conditions: in vivo
[61] = species: Homo sapiens; assay: Toxicity in HBeAg-positive chronic hepatitis B patient assessed as hyperphosphatemia at 600 mg/day; format: organism-based; conditions: in vivo
[62] = system: Hepatitis B virus; assay: Antiviral activity against Hepatitis B virus in HBeAg-positive chronic hepatitis B patient assessed as mean rate of infected cell loss at 600 mg/day; format: functional

## C=C1[C@H](CO)[C@@H](O)C[C@@H]1n1cnc2c(=O)[nH]c(N)nc21.O [ENTECAVIR]
[1]
  Activity: 1%
[2]
  Activity: 1%
[3]
  Activity: 0%
[4]
  Activity: 1%
[5]
  Activity: 1.002 day⁻¹
[6]
  Activity: Non-toxic
[7]
  Activity: 116.3 IU/L
[8]
  Activity: 0%
[9]
  Activity: 1%
[10]
  Activity: 0.071 day⁻¹
[11]
  Activity: 0%
[12]
  Activity: 3 patients
[13]
  Activity: 0%
[14]
  Activity: 0%
[15]
  Activity: 1%
[16]
  Activity: 0%
[17]
  Activity: 1%
[18]
  Activity: 1%
[19]
  Activity: 1%
[20]
  Activity: 0%
[21]
  Activity: 0%
[22]
  Activity: 2%
[23]
  Activity: 6.5
[24]
  Activity: 1%
[25]
  Activity: Non-toxic
[26]
  Activity: 1%
[27]
  Activity: 0%
[28]
  Activity: 0%
[29]
  Activity: 2%
[30]
  Activity: 99.2%
[31]
  Activity: 1%

## Cc1cn([C@@H]2C[C@@H](O)[C@H](CO)O2)c(=O)[nH]c1=O [TELBIVUDINE]
[32]
  Activity: 0%
[33]
  Activity: 1%
[34]
  Activity: 1%
[35]
  Activity: 1%
[36]
  Activity: 0%
[37]
  Activity: 0%
[38]
  Activity: Non-toxic
[39]
  Activity: 1%
[40]
  Activity: 0%
[41]
  Activity: 108 IU/L
[42]
  Activity: Non-toxic
[43]
  Activity: 0.809 day⁻¹
[44]
  Activity: 0%
[45]
  Activity: 6.6
[46]
  Activity: 1%
[47]
  Activity: 1%
[48]
  Activity: 1%
[49]
  Activity: 1%
[50]
  Activity: 3%
[51]
  Activity: 0%
[52]
  Activity: 1%
[53]
  Activity: 1%
[54]
  Activity: 1%
[55]
  Activity: 0%
[56]
  Activity: 99.1%
[57]
  Activity: 0%
[58]
  Activity: 0%
[59]
  Activity: 0%
[60]
  Activity: 0%
[61]
  Activity: 1%
[62]
  Activity: 0.075 day⁻¹
